Test results taken from US4515793A, “Phenylpiperazines which are useful in the treatment of schistosomiasis” (Edna McConnell Clark Foundation, priority 1983, dated 1985).
Where “and” joins values, the source holds several entries; their conditions need not be identical. Equal entries are not always repeated.

What was measured:
[1] = tested on: S. mansoni; experiment: antischistosomal activity in mice (live worm burden, single oral dose); format: in vivo, S. mansoni (host: CD1 white female mice); conditions: Schistosoma mansoni, single oral dose, read-out: % Reduction Live Worm Burden; for inhibition in vivo at 50 mg/kg: mice (footnote, 40 mg/kg); for inhibition in vivo at 156 mg/kg: mice (footnote, 125 mg/kg column)
Protocol: Tests were conducted to determine the antischistosomal activity in mice and monkeys. The results of the mice tests are reported in Tables 1 to 4 along with the chemical identifications of the compounds synthesized and tested.
The mice tests were conducted as follows:
A. Preinfection Procedures: Purina Laboratory chow (Ralston-Purina) and water were given ad libitum. All mice were housed in hanging stainless steel cages, without bedding, five per cage. They were kept in a ward with an ambient temperature of 75° F. and a relative humidity of 50-55%. Therapeutic treatment was given on Day 40 post-infection.
B. Experimental Procedures: CD1 white female mice were exposed by the tail immersion method for 30 minutes to 80 individually counted S. mansoni cercariae (WRAIR laboratory strain). The cercariae were obtained from pools of no less than 25 Biophalaria glabrata snails. Each experiment consisted of 118 mice divided into infected/water treated and infected/vehicle-treated controls, and infected/drug-treated groups (two dose levels) for six compounds. Groups of 12 mice each were treated with a compound synthesized and provided by the Warner-Lambert Company, Ann Arbor, Mich. at two dose levels. At the same time, five mice were sacrificed to establish worm burdens as infection controls. Three weeks after treatment, all remaining mice were sacrificed and perfused. Gross pathology (liver and intestines) was noted and graded (0 to +3). Worm burdens were determined and the sex of the worms recorded. Following perfusions the liver and intestines were removed and examined for the presence of […] or dead worms. […] Drugs were administered orally in Emulphor EL.
C. Drug Treatment: Treatment consisted of a single oral dose. Each drug was give initially at two dose levels, 40 mg/kg and 125 mg/kg, SID×1.
D. Criteria Used to Evaluate Therapeutic Effectiveness:
Evaluation of activity was determined by examination of the animals at 23 to 28 days after treatment. The schistosomes remaining alive after treatment were counted in the perfusates of the hepatic portal system and in press preparation of the livers. In the same preparations, the relative numbers of dead and/or encapsulated (i.e., worms may or may not be dead) parasites and the relative degree of pathology were ascertained. The efficacy of each treatment was that percentage of the control infection represented by the difference between numbers of parasites recovered from control (H2 O+vehicle) and treated animals. Thus, % efficacy is: [formula]

[2] = tested on: Salmonella Typhimurium TA1537; experiment: bacterial mutagenicity, strain TA1537; format: cell-based; design: key: +: Positive Response; -: Negative Response; w+: Weak Positive Response
Protocol: (§1) The tests were carried out as follows:
(§2) Four phenylpiperazine derivatives were selected and specially purified samples were prepared for testing as bacterial mutagens. The tests were conducted with five strains (TA98, TA100, TA1535, TA1537, and TA1538) of Salmonella Typhimurium. The compounds were the base of cpd. A (Table 6a), cpd. 28 (Table 2), cpd. 49 (Table 3), and cpd. 8 (Table 1). Hycanthone was used as a positive control drug. In the initial test, cpd. A base was nonmutagenic, confirming previous work using strains TA98 and TA100 with cpd. A. Cpd. 28 and cpd. […] In this initial test, cpd. […] Therefore, it was concluded that cpd. 49 is nonmutagenic in the Ames/Salmonella assay.

[3] = tested on: Salmonella Typhimurium TA98; experiment: bacterial mutagenicity, strain TA98; format: cell-based; design: key to Mutagenicity TA98: +: Positive Response; -: Negative Response; w+: Weak Positive Response
Protocol: as §1, §2

[4] = tested on: Salmonella Typhimurium TA1538; experiment: bacterial mutagenicity, strain TA1538; format: cell-based; design: key: +: Positive Response; -: Negative Response; w+: Weak Positive Response
Protocol: as §1, §2

[5] = tested on: Salmonella Typhimurium TA1535; experiment: bacterial mutagenicity, strain TA1535; format: cell-based; design: key: +: Positive Response; -: Negative Response; w+: Weak Positive Response; conditions: without metabolic activation
Protocol: as §1, §2

[6] = tested on: Salmonella Typhimurium; experiment: bacterial mutagenicity (Ames/Salmonella), five strains together; format: cell-based; conditions: for bacterial mutagenicity: initial test
Protocol: as §1
Four phenylpiperazine derivatives were selected and specially purified samples were prepared for testing as bacterial mutagens. The tests were conducted with five strains (TA98, TA100, TA1535, TA1537, and TA1538) of Salmonella Typhimurium. The compounds were the base of cpd. A (Table 6a), cpd. 28 (Table 2), cpd. 49 (Table 3), and cpd. 8 (Table 1). Hycanthone was used as a positive control drug.

[7] = tested on: Salmonella Typhimurium TA100; experiment: bacterial mutagenicity, strain TA100; format: cell-based; design: key: +: Positive Response; -: Negative Response; w+: Weak Positive Response
Protocol: as §1, §2

[8] = tested on: S. mansoni; experiment: antischistosomal activity in Cebus apella monkeys treated orally; format: in vivo, S. mansoni (host: Cebus apella monkeys); conditions: four equal doses over two days, oral

Structure (SMILES)	inhibition in vivo at 40 mg/kg ([1]; mice) [%]	inhibition in vivo at 50 mg/kg [1] [%]	inhibition in vivo at 156 mg/kg [1] [%]	Mutagenicity TA1537 ([2]; with metabolic activation)	Mutagenicity TA1537 ([2]; without metabolic activation)	Mutagenicity TA98 ([3]; with metabolic activation)	Mutagenicity TA98 ([3]; without metabolic activation)	Mutagenicity TA1538 ([4]; with metabolic activation)	Mutagenicity TA1538 ([4]; without metabolic activation)	Mutagenicity TA1535 [5]	bacterial mutagenicity ([6]; five strains)	Mutagenicity TA100 ([7]; with metabolic activation)	inhibition in vivo at 20 mg/kg ([1]; mice) [%]	also measured
O=C(CN1CCN(c2ccc(CO)c(Cl)c2)CC1)c1ccc(Cl)c(Cl)c1Cl [Cpd. 8, 2-[4-[3-Chloro-4-(hydroxymethyl)phenyl]-1-piperazinyl]-1-(2,3,4-trichlorophenyl)ethanone]	84	91	96	w+	-	-	-	-	-	-	mutagenic, but much less so than hycanthone	+		
O=C(CCN1CCN(c2ccc(CO)c(Cl)c2)CC1)c1ccc(Cl)cc1 [drawing 32]														% Reduction Live Worm Burden at Necropsy ([8]; 100 mg/kg): 93% and 87%; Total Live Worms at Necropsy ([8]; 100 mg/kg): 15 and 27; % Reduction Live Worm Burden at Necropsy ([8]; 200 mg/kg): 100% and 96%; % Reduction Live Worm Burden at Necropsy ([8]; 400 mg/kg): 97% and 95%; Total Live Worms at Necropsy ([8]; 400 mg/kg): 6 and 11; Total Normal Worms at Necropsy ([8]; two values given, not assigned to the doses): 0; Fecal Egg Count ([8]; two values printed for six animals (400, 200, 100 mg/kg), not assigned): 0
O=C(CN1CCN(c2ccc(CO)c(Cl)c2)CC1)c1cc2ccccc2o1 [Cpd. 49, 2-[4-[3-Chloro-4-(hydroxymethyl)phenyl]-1-piperazinyl]-1-(2-benzofuranyl)-ethanone]				-	-	+	-	-	-	-		-	33	inhibition in vivo at 125 mg/kg ([1]; 125 mg/kg, mice): 97%; bacterial mutagenicity ([3]; initial test, TA98 with microsomal activation): weakly mutagenic; bacterial mutagenicity ([3]; second test, TA98, microsomal activation, additional concentrations 10-60 micrograms/ml): did not confirm this mutagenicity; bacterial mutagenicity, conclusion ([6]; Ames/Salmonella assay, overall conclusion): nonmutagenic; bacterial mutagenicity ([6]; other four strains (not TA98)): nonmutagenic
CCN(CC)CCNc1ccc(CO)c2sc3ccccc3c(=O)c12 [Hycanthone, reference compound]				+	+	+	+	+	+	-		+		Mutagenicity TA100 ([7]; without metabolic activation): +
O=C(CCN1CCN(c2ccc(CO)c(Cl)c2)CC1)c1ccc(Cl)cc1 [Cpd. 28, 3-[4-[3-Chloro-4-(hydroxymethyl)phenyl]-1-piperazinyl]-1-(4-chlorophenyl)-1-propanone]	88	98	99	-	w+	-	-	+	w+	-	mutagenic, but much less so than hycanthone	+	66	
